According to patent US20230255935A1, “ANTI-VIRAL COMPOUNDS AND METHODS FOR SCREENING SAME AND TREATING VIRAL INFECTIONS” (priority 2020, published 2023):

Biological target: full-length MERS-CoV N protein (Middle East respiratory syndrome-related coronavirus, UniProt K9N4V7)

CN(C)Cc1c[nH]c2ccc(OCc3ccccc3)cc12 [PSX-01, 5-benzyloxygramine]
radius of gyration (Rg) of N protein: 65
